# Measured values taken from patent US8987217B2, “Modified saponins for the treatment of fungal infections” (The General Hospital Corporation, priority 2010, dated 2015).
# Legend:
# [1] = test system: C. albicans strain DAY185; assay: in vitro antifungal activity (MIC) in the co-inoculation assay, turbidity read visually; assay type: cell-based
# Procedure: (§1) The procedure for the co-inoculation antifungal compound screen were conducted as previously described (Okoli et al., PLoS ONE, 4:e7025 (2009); Tampakakis et al., Nat Protocols, 3:1925-1931 (2008)), using the C. albicans strain DAY185 (Davis et al., Infect Immun, 68:5953-5959 (2000)) and the C. elegans glp-4;sek-1 double mutant.
# The determination of the lowest concentration of the selected compounds showing in vitro antifungal activity was accomplished by following the steps detailed in the co-inoculation assay, using two-fold serial dilutions of the test compounds.
# C. albicans = assay: C. elegans-C. albicans co-inoculation assay, nematode survival; assay type: in vivo
# Procedure: as §1
# (§2) This assay allows simultaneous assessment of a compound's potential toxicity and the ability to promote the survival of the nematode in the presence of C. albicans, including modes of action not traditionally considered in antifungal assays such as impeding a fungal virulence factor or promoting host immune response. We performed a screen of 2,560 natural products representing a fraction of the Analyiticon Discovery compound collection (ac-discovery.com) housed at the Broad Institute of Harvard and MIT (Cambridge, Mass.). […] These natural products identified in the primary screen were retested and confirmed (FIG. 1; Table 1). […] Moreover, although the antifungal effects of some of these saponins have been reported (Sata et al., Biosci Biotechnol Biochem, 62:1904-1911 (1998); Ohtani et al., Phytochem, 33:83-86 (1993)), their efficacy against Candida spp. has not been studied.
# After confirmation of these hits, dose response experiments were conducted to determine the concentration that provided maximum nematode survival. The compounds conferred a range of nematode survival from 27% (compound A6) to 93% (compounds A2, A7, A24, and A25), however, with the exception of A6, all compounds conferred a nematode survival over 65% (FIG. 1).
# C. elegans = assay: toxicity to the nematode in dose response experiments; conditions: dose response experiments, higher concentrations
# Excerpt: as §2
# Representatives of the saponins family are able to disrupt cellular membranes and the lytic activity on erythrocytes has been used as an assay for some saponins Francis et al., British Journal of Nutrition, 88:587-605 (2002)). This property is derived from the affinity of some saponins for binding cholesterol forming insoluble pores composed of the sterol and saponins (Bangham et al., Nature, 196:952-953(1962); Glauert et al., Nature, 196:953-955 (1962)). […] The dose-response experiments previously used to determine the EC50 and approximate the MIC can also indicate if the saponins maybe toxic to C. elegans and potentially to mammalian cells.
# C. albicans strains = assay: MIC by standard CLSI microdilution protocol M27-A; assay type: cell-based
# Procedure: Using the standard Clinical and Laboratory Standards Institute (CLSI) procedure, the in vitro MIC of these two compounds was determined on the following C. albicans strains: DAY185 (the standard strain used throughout the screen), two fluconazole-resistant strains of C. albicans, and an echinocandin-resistant strain of C. albicans (Table 2).
# (§3) The minimal inhibitory concentration (MIC) was determined for strains DAY185, 98-145, 95-120 (White et al., Antimicrob Agents Chemother, 46:1704-1713 (2002)), and A15-10 (Garcia-Effron et al., Antimicrob Agents Chemother, 53:112-122 (2009)) spectrophotometrically using RPMI 1640 media (Mediatech, Inc.) following the standard CLSI microdilution protocol M27-A (National Committee for Clinical Laboratory Standards, Reference method for broth dilution susceptibility testing of yeasts. Tentative standard M27-A, Villanova, Pa. (1995)). Biofilm assays using identified compounds were conducted as previously described (Richard et al., Eukaryot Cell, 4:1493-1502 (2005)). The biofilm dry mass was determined by drying the silicone squares in a chemical hood, and weighing the resulting biofilm mass subtracting the previously weighed mass of the silicone square. Biofilm pictures were captured using a confocal laser microscope (TCS NT, Leica Microsystems). Cells were grown at 30° C., exposed to PS for 30 min, and then washed with PBS.
# sheep erythrocytes = assay: hemolysis of sheep erythrocytes; assay type: cell-based; conditions: 100 μg/mL
# Procedure: The cytotoxicity for the identified compounds was confirmed as previously described (Breger et al., PLoS Pathog, 3:e18 (2007); Moy et al., Proc Natl Acad Sci USA, 103:10414-10419 (2006)). Hemolysis of sheep erythrocytes (Rockland Immunochemicals) was monitored on a spectrophotometer at A540 with the two natural products A16 and A19 (100 μg/mL) in 2% DMSO. Triton X-100 and DMSO were used as controls.
# C. albicans biofilm = assay: biofilm formation on silicone pads (dry mass); assay type: cell-based; conditions: 20 μg/mL (below the MIC), compared with caspofungin
# Procedure: as §3, with “Biofilm pictures were captured using a confocal laser microscope (TCS NT, Leica Microsystems). Cells were grown at 30° C., exposed to PS for 30 min, and then washed with PBS.” left out
# Caspofungin (Merck) served as a known antifungal compound control. In vitro hyphal inhibition was assessed by incubation of DAY185 in RPMI 1640 media at 37° C. […] The ability of the antifungal compound A16, at either 2 or 4 μg/mL, to induce osmotic stress was assessed using DAY185 grown in a 96 well microtiter plate containing RPMI 1640 media and NaCl, ranging in concentrations from 0-2 M in 0.25 M increments. The growth of the fungus was measured spectrophotometrically after 48 hours of growth at 35° C.
smiles,measurement,setting,value
C/C=C(/C)C(=O)O[C@H]1CC(C)(C)C[C@H]2C3=CCC4[C@@]5(C)CC[C@H](O[C@@H]6O[C@H](C(=O)O)[C@@H](O[C@@H]7O[C@H](CO)[C@H](O)[C@H](O)[C@H]7O[C@@H]7O[C@H](CO)[C@@H](O)[C@H](O)[C@H]7O)[C@H](O)[C@H]6OC6O[C@@H](C)[C@H](O)[C@@H](O)[C@H]6O)C(C)(C)C5CC[C@@]4(C)[C@]3(C)C[C@@H](O)[C@@]12CO (some centres unmarked) [A19],MIC in vitro,"[1]; co-inoculation assay, two-fold serial dilutions, C. albicans DAY185",26.5 µg/mL
same,in vitro growth of C. albicans,[1]; screen / dose response,completely inhibited
same,maximum nematode survival,"C. albicans; dose response, C. albicans-infected C. elegans",80%
same,EC50 in vivo,C. albicans; dose that resulted in 50% survival of C. albicans-infected nematodes,26.5 µg/mL
same,toxicity to the nematode,C. elegans,none of the concentrations used in the dose response experiment showed signs of toxicity
same,MIC,C. albicans strains; C. albicans DAY185,32 µg/mL
same,MIC,C. albicans strains; echinocandin-resistant strain A15,16 µg/mL
same,MIC,C. albicans strains; fluconazole-resistant strain 95-120,32 µg/mL
same,MIC,C. albicans strains; fluconazole-resistant strain 98-145,32 µg/mL
same,hemolytic activity,sheep erythrocytes,no hemolytic activity
same,biofilm formation,C. albicans biofilm,able to inhibit biofilm formation
